From article PMC4076079, “Selective inhibitors of a PAF biosynthetic enzyme lysophosphatidylcholine acyltransferase 2” (Journal of Lipid Research, 2014)
Like-named read-outs stand apart in the source and are kept apart here.

Tests used:
RAW-mLPCAT2 cells = assay: cell viability assay (WST-8); assay type: cell-based, mouse; details: Mus musculus, 1 h pretreatment
Experimental: (§1) Cell viability was measured using a modified MTT [3-(4,5-dimethylthiazol-2-yl)-2,5-diphenyltetrazolium bromide] dye reduction assay using WST-8 [2-(2-methoxy-4-nitrophenyl)-3-(4-nitrophenyl)-5-(2,4-disulfophenyl)-2H-tetrazolium, monosodium salt; Dojindo Molecular Technologies, Inc., Kumamoto, Japan] according to the manufacturer’s instructions. […] or RAW-mLPCAT2 cells were seeded in 96-well plates (1 × 10^4 cells/well) for 8 h and then treated with a compound for 36 h. WST-8 was added for another 2 h and the 450 nm absorbance was measured using a microplate reader (Bio-Rad). Cell viability was expressed as a percentage of vehicle-treated control values. To observe the effects of the incubation time on cell viability, 0.4 × 10^4 RAW-mLPCAT2 cells were treated with compounds for 1 or 6 h before the WST-8 assay.
(§2) Step 8 screening: cell viability assay
(§3) Wild-type RAW264.7 cells and RAW264.7 cells transfected with mLPCAT2 or control plasmid were used. Cells were cultured for 36 h with 0, 0.06, 0.2, 0.6, 2, 6, and 20 µM of compounds in 96-well plates and assayed for viability with WST-8. […]
(§4) The data were normalized to each positive control (100% activation). Percentage inhibition or IC50 were determined in each screening step. To assess screening quality, the percentage coefficient of variance and the Z’ factor was calculated for each plate or each assay as described previously (2).

[1] = cell viability assay (WST-8); assay type: cell-based, mouse; details: mouse, RAW-mLPCAT2 cells (RAW264.7 cells transfected with mLPCAT2), 36 h treatment, WST-8, data not shown, read-out: cytotoxicity IC50 (cell viability)
Experimental: as §1, §2, §3, §4

[2] = cell viability assay (WST-8); assay type: cell-based; details: mouse, RAW264.7 cells (wild-type), 36 h treatment, data not shown, read-out: cytotoxicity IC50 (cell viability)
Experimental: as §1, §2, §3, §4

mLPCAT2 [3] = target: T1, mLPCAT2 (Mus musculus, UniProt Q8BYI6); assay: acyltransferase activity assay, 16:0/20:4 alkyl-PC product; assay type: biochemical; details: 20 μM compound; microsomal fractions of nonstimulated CHO-S-PAFR cells; n = 3, mean ± SEM
T1 construct: expressed in transfected cells; host or cells: CHO-S-PAFR cells, microsomal fraction, with or without mcPAF stimulation
T1 sequence (Q8BYI6 1-544): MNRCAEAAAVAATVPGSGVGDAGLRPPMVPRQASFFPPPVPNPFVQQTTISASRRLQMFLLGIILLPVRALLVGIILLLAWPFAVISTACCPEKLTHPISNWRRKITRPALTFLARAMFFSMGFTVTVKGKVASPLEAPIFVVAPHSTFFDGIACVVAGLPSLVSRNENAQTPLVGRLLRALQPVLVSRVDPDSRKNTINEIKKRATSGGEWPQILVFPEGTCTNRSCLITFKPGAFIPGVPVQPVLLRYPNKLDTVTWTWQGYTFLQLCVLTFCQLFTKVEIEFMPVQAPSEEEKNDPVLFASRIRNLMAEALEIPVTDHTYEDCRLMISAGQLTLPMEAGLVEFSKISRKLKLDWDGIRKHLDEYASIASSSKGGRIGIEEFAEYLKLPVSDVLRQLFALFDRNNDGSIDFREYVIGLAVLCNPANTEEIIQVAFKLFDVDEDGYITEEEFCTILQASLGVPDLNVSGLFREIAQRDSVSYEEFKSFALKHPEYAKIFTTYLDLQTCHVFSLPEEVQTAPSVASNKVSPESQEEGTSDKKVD
Experimental: (§5) Microsomal protein fractions (0.5 μg) supplemented with the indicated compound concentrations were added to the reaction mixture containing 100 mM Tris-HCl (pH 7.4), 1 μM CaCl2, 0.015% Tween-20, and two substrates. For acetyltransferase activity, the substrates were 1 mM acetyl-CoA and 5 μM d4-lyso-PAF; for the acyltransferase activity of LPCAT1 or LPCAT2, the substrates were, respectively, palmitoyl-CoA and d31-16:0 LPC or arachidonoyl-CoA and d4-lyso-PAF (all 5 μM). Each lysophospholipid contained fatty acid at the sn-1 position. After incubation at 37°C for 5 min, the reactions were stopped by adding 300 μl methanol containing 17:0 LPC or 14:0/14:0 PC as an internal standard. Deuterium-labeled products were analyzed by LC-MS/MS (Waters, Milford, MA and Thermo Scientific, Waltham, MA). […]
(§6) arachidonoyl-CoA, 5 µM; palmitoyl-CoA, 5 µM; d4-lyso-PAF, 5 µM; and d31-LPC, 5 µM. […]
(§7) deuterium-labeled products were measured by LC-MS/MS. […]
(§8) Step 7 screening: species-specific differences
(§9) To evaluate the effects on the activity of mouse or human LPCAT1 and LPCAT2, each microsomal fraction was obtained using CHO-S-PAFR cells with or without mcPAF (200 nM) stimulation for 5 min. Acetyltransferase and acyltransferase assays were performed with 20 µM of each compound. Percentage inhibition was calculated in each

mLPCAT1 = target: T2, mLPCAT1 (Mus musculus, UniProt Q3TFD2); assay: lyso-PAFAT (acetyltransferase) activity assay, PAF product; assay type: biochemical; details: 20 μM compound; microsomal fractions of nonstimulated CHO-S-PAFR cells; n = 3, mean ± SEM
T2 construct: expressed in transfected cells; host or cells: CHO-S-PAFR cells, microsomal fraction
T2 sequence (Q3TFD2 1-534): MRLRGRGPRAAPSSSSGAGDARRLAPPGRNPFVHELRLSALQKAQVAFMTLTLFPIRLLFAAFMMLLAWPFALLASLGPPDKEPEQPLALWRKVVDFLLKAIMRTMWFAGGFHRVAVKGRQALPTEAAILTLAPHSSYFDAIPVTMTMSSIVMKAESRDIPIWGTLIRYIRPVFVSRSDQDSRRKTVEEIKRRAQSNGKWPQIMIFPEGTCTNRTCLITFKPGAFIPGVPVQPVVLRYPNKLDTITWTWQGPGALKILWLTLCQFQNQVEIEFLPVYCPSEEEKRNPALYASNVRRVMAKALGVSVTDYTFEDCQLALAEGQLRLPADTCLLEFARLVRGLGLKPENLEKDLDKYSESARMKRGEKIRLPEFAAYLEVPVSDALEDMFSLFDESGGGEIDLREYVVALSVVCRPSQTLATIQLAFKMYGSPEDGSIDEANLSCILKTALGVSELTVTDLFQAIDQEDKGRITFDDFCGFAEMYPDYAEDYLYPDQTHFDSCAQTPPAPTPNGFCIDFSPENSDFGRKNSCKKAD
Experimental: as §5, §6, §7, §8, §9

mLPCAT2 [4] = target: T1, mLPCAT2; assay: as above; assay type: biochemical; details: 20 μM compound; microsomal fractions of nonstimulated CHO-S-PAFR cells; n = 3, mean ± SEM
Experimental: as §5, §6, §7, §8, §9

Row | SMILES | IC50 (RAW-mLPCAT2 cells) | IC50 at 36 h [1] | IC50 at 36 h [2] | percentage inhibition, product 16:0/20:4 Alkyl-PC, mLPCAT2 (mLPCAT2 [3]) | percentage inhibition, product PAF, mLPCAT1 (mLPCAT1) | percentage inhibition, product PAF, mLPCAT2 (mLPCAT2 [4])
1 | CC(C)OC(=O)c1ccc(N2C(=O)C(Cl)=C(Cl)C2=O)cc1 [TSI-01, propan-2-yl 4-(3,4-dichloro-2,5-dioxopyrrol-1-yl)benzoate] | > 60 µM | > 20 µM | > 20 µM | 95.5 ± 1.8 percentage | 89.2 ± 1.8 percentage | 99.2 ± 0.2 percentage
2 | CC(C)OC(=O)c1ccc(N2C(=O)C(Cl)=C(Nc3ccccc3O)C2=O)cc1 [TSI-07] | > 60 µM | > 20 µM | > 20 µM | 82.4 ± 5.7 percentage | 33.6 ± 6.1 percentage | 84.1 ± 6.4 percentage
3 | CCCOC(=O)c1ccc(N2C(=O)C(Cl)=C(Cl)C2=O)cc1 [TSI-10] | > 60 µM | > 20 µM | > 20 µM | 86.7 ± 5.2 percentage | 89.6 ± 1.1 percentage | 99.1 ± 0.2 percentage
4 | CCCCOC(=O)c1ccc(N2C(=O)C(Cl)=C(Cl)C2=O)cc1 [TSI-11, butyl 4-(3,4-dichloro-2,5-dioxopyrrol-1-yl)benzoate] | > 60 µM | > 20 µM | > 20 µM | 83.0 ± 3.5 percentage | 89.3 ± 1.1 percentage | 98.9 ± 0.3 percentage
